Results reported in patent publication US20200003762A1, “Diagnostics Platform for Mitochondrial Dysfunctions/Diseases” (BioElectron Technology Corporation, priority 2018, published 2020).

What was measured:
apoptosis = conditions: cited from earlier work
Y79 = assay: Exemplary training dataset: dysfunction D1 in Y79 cultures exposed to inhibitor A8674; format: cell-based, Human
Source text: or more simply by Yt1 . . . i,d1 . . . j,c1 . . . l or still as a vector Y of the form [y1, y2, . . . , yi*j*l]. Thus, a partial excerpt from an exemplary training data derived from input tensor X for system 100 may be given by Table 7 below:
In the above training dataset, each entry of column Y is a value in the vector Y discussed above. Each entry q of column X(qk) with a hat “^” denotes a vector and is an entry in input tensor X, and is a vector of measured quantities [q1, q2, . . . , qk] of the analytes in the biomarker measurement such as those shown in Tables 3-5. In other words, the training dataset consists of measured vectors q at indices i,j,l of tensor X per above explanation. Human retinoblastoma (Y79) from Table 1 above is used as the cell-line from which in vitro cultures are grown.
Note that rows 1-6 correspond to the scenario when no inhibitor was exposed (zero/O state), and unsurprisingly column Y indicates a 0 or a 0% probability that dysfunction D1 is present in the corresponding culture.

[1] = test system: monocarboxylic acid transport; conditions: cited from earlier work
[2] = test system: β-cell apical anion exchange; conditions: read-out: block β-cell apical anion exchange (IC50); cited from earlier work
NADH oxidase = conditions: mitochondria preparations of S. cerevisiae; cited from earlier work
[3] = test system: NADH-cytochrome C reductase; conditions: mitochondria preparations of S. cerevisiae; cited from earlier work
succinate oxidase = conditions: mitochondria preparations of S. cerevisiae; cited from earlier work
[4] = test system: succinate cythochrome C reductase; conditions: mitochondria preparations of S. cerevisiae; cited from earlier work
[5] = target: human porphobilinogen synthase (PBGS; ALAD) (Homo sapiens, UniProt P13716); conditions: allosteric; cited from earlier work
[6] = test system: NADH:ubiquinone oxidoreductase; conditions: cited from earlier work
neoplastic cells = conditions: by interfering with hexokinase and disrupting uncoupler-stimulated mitochondrial electron transport; cited from earlier work
ferroptosis = conditions: cited from earlier work
[7] = test system: mitochondrial FIFO ATP synthase; conditions: cited from earlier work
FIFO = conditions: cited from earlier work
isolated rat hearts = conditions: during ischemia; cited from earlier work
ADP ribosylation = conditions: cited from earlier work
HL-1 = conditions: cited from earlier work
[8] = test system: brush-border membrane vesicles; conditions: cited from earlier work
Mg2+-ATPase = conditions: cited from earlier work
[9] = test system: plasma and mitochondrial membranes; conditions: cited from earlier work
[10] = test system: mitochondrial superoxide production; conditions: cited from earlier work
β-amyloid = conditions: cited from earlier work
background K+ current = conditions: cited from earlier work
mitochondrial ATPase = conditions: cited from earlier work
[11] = test system: mice models of diabetes II; conditions: cited from earlier work
PPARγ = PPARγ (Homo sapiens, UniProt P37231); conditions: cited from earlier work
[12] = target: mitochondrial outer membrane protein mitoNEET (Homo sapiens, UniProt Q9NZ45); conditions: cited from earlier work
Sequence of mitochondrial outer membrane protein mitoNEET (Q9NZ45 whole entry): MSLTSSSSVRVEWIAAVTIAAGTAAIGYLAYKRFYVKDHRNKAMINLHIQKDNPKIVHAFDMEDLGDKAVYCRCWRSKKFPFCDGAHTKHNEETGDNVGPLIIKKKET

Sequence of human porphobilinogen synthase (PBGS; ALAD) (P13716 whole entry): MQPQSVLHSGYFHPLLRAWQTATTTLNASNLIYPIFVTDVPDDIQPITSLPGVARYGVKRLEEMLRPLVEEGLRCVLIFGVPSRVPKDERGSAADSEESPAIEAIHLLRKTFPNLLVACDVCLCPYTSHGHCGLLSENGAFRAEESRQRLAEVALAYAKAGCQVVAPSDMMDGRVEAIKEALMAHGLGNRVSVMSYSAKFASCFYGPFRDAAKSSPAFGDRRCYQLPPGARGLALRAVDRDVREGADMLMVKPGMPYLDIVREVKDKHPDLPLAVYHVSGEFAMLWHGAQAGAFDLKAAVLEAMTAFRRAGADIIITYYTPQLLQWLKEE
Sequence of PPARγ (P37231 whole entry, species assumed): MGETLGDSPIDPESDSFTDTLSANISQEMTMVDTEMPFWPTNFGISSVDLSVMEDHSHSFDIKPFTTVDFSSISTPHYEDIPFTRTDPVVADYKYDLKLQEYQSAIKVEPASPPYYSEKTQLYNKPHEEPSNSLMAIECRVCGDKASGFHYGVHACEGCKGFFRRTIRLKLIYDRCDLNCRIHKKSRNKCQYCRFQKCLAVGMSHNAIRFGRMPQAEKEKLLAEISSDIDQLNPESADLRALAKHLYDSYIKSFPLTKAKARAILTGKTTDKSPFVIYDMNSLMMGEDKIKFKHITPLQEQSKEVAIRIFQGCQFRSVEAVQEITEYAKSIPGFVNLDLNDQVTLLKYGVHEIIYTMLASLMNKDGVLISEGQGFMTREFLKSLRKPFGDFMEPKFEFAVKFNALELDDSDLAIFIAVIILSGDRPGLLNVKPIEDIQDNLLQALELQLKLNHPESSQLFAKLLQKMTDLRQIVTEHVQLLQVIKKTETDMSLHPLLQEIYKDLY

Antimycin A from Streptomyces sp. [A8674]
apoptosis (apoptosis): complex III. Induces apoptosis. | Y (probability that dysfunction D1 is present) (Y79; 1 minute, 1 uL): 0% | Y (probability that dysfunction D1 is present) (Y79; 30 minutes, 5 uL): 100% or 1 | Y (probability that dysfunction D1 is present) (Y79; 1 hours, 1 uL): 100% or 1 | Y (probability that dysfunction D1 is present) (Y79; 5 hours, 1 uL): 100% or 1 | Y (probability that dysfunction D1 is present) (Y79; 10 hours, 1 uL): 100% or 1 | Y (probability that dysfunction D1 is present) (Y79; 2 days, 1 uL): 100% or 1

N#CC(=Cc1ccc(O)cc1)C(=O)O [C2020, α-Cyano-4-hydroxycinnamic acid]
monocarboxylic acid transport, including lactate and pyruvate transport [1]: Specific inhibitor of | IC50 [2]: 2400 µM

O=[N+]([O-])c1c(Cl)cccc1-c1c[nH]cc1Cl [P8861, Pyrrolnitrin from Pseudomonas cepacia]
NADH oxidase (NADH oxidase): inhibited succinate oxidase, | NADH-cytochrome C reductase [3]: inhibited succinate oxidase, | succinate oxidase (succinate oxidase): inhibited succinate oxidase, | succinate cythochrome C reductase [4]: inhibited succinate oxidase,

ML-3H2 [M2324]
inhibition of human porphobilinogen synthase [5]: hexamer-stabilizing inhibitor

C=C(C)[C@H]1Cc2c(ccc3c2O[C@@H]2COc4cc(OC)c(OC)cc4[C@@H]2C3=O)O1 [R8875, Rotenone]
mitochondrial electron transport at NADH:ubiquinone oxidoreductase [6]: Inhibitor of mitochondrial

O=C(O)c1nn(Cc2ccc(Cl)cc2Cl)c2ccccc12 [L4900, Lonidamine]
energy metabolism of neoplastic cells (neoplastic cells): Inhibits the energy metabolism

Cc1c(C)c(O)c(CC[C@](C)(O)CCC[C@H](C)CCC[C@H](C)CCCC(C)C)c(C)c1O [vitamin E hydroquinone]
inhibition of ferroptosis (ferroptosis): potent inhibitor

CC1(C)Oc2ccc(S(=O)(=O)N3CCCCC3)cc2[C@@H](N(Cc2ncc[nH]2)c2ccc(Cl)cc2)[C@@H]1O.Cl [BM0017, BMS-199264 hydrochloride]
ATP hydrolase activity of mitochondrial FIFO ATP synthase [7]: Potently inhibits the ATP | effect on the ATP synthase function of FIFO (FIFO): 199624 has no effect on the ATP | depletion of ATP levels (isolated rat hearts): blocks depletion of ATP levels,

m-Iodobenzyl-guanidine hemisulfate salt [I9890]
ADP ribosylation (ADP ribosylation): Antitumor agent which inhibits

O=C(Oc1cc(S(=O)(=O)c2ccccc2)ccc1[N+](=O)[O-])c1ccc(Cl)cc1 [SML1122, BTB06584]
ATP hydrolase activity of mitochondrial FIFO ATP synthase [7]: BTB06584 inhibits the ATP | effect on mitochondrial membrane potential (HL-1): has no effect on oxygen | effect on oxygen consumption (HL-1): has no effect on oxygen

N#CC(C#N)=NNc1cccc(Cl)c1 [C2759, Carbonyl cyanide 3-chlorophenylhydrazone]
Cl-/Cl- exchange activities [8]: hepatic lipase and partially | pH gradient-activated Cl- uptake [8]: hepatic lipase and partially

N#CC(C#N)=NNc1ccc(OC(F)(F)F)cc1 [C2920, Carbonyl cyanide 4-(trifluoromethoxy)phenylhydrazone]
Mg2+-ATPase activity (Mg2+-ATPase): [Na+]. FCCP stimulates Mg2+- | depolarizing plasma and mitochondrial membranes [9]: depolarizing plasma and | effect of selective glutamate agonist NMDA on mitochondrial superoxide production [10]: amyloid production, and mimics | β-amyloid production (β-amyloid): ATPase activity, inhibits β- | background K+ current (background K+ current): It also is reported to inhibit | inward current (background K+ current): induce a small inward current,

CC[C@H]1/C=C/C=C/C[C@@H](C)[C@H](O)[C@@](C)(O)C(=O)[C@@H](C)[C@H](O)[C@@H](C)C(=O)[C@@H](C)[C@H](O)[C@@H](C)/C=C/C(=O)O[C@@H]2[C@H](C)[C@H](CC1)O[C@]1(CC[C@H](C)[C@H](C[C@@H](C)O)O1)[C@H]2C [compound 04876, Oligomycin from Streptomyces diastatochromogenes]
mitochondrial ATPase and phosphoryl group transfer (mitochondrial ATPase): Macrolide antibiotic; inhibits

CCOC(=O)N1CCC(NC(=S)Nc2cc(Cl)cc(Cl)c2)CC1 [SML1280, TT01001]
glucose intolerance ([11]; mice models of diabetes II): TT01001 improves hyperglycemia, | hyperglycemia ([11]; mice models of diabetes II): TT01001 improves hyperglycemia, | hyperlipidemia ([11]; mice models of diabetes II): TT01001 improves hyperglycemia, | pioglitazone associated weight gain ([11]; mouse, in vivo): anti-diabetic effects without | PPARγ activation (PPARγ): without PPARγ activation. | binding to mitoNEET [12]: ligands that binds to mitoNEET
